Experiments:
[1] = cited from earlier work
[2] = molecular target: T1, dihydropyrimidine dehydrogenase (DPYD) (Homo sapiens, UniProt Q12882); conditions: cited from earlier work
T1 construct: degraded in the liver by dihydropyrimidine dehydrogenase (DPYD); host or cells: liver (in vivo, endogenous enzyme)
T1 sequence (Q12882 4-1025): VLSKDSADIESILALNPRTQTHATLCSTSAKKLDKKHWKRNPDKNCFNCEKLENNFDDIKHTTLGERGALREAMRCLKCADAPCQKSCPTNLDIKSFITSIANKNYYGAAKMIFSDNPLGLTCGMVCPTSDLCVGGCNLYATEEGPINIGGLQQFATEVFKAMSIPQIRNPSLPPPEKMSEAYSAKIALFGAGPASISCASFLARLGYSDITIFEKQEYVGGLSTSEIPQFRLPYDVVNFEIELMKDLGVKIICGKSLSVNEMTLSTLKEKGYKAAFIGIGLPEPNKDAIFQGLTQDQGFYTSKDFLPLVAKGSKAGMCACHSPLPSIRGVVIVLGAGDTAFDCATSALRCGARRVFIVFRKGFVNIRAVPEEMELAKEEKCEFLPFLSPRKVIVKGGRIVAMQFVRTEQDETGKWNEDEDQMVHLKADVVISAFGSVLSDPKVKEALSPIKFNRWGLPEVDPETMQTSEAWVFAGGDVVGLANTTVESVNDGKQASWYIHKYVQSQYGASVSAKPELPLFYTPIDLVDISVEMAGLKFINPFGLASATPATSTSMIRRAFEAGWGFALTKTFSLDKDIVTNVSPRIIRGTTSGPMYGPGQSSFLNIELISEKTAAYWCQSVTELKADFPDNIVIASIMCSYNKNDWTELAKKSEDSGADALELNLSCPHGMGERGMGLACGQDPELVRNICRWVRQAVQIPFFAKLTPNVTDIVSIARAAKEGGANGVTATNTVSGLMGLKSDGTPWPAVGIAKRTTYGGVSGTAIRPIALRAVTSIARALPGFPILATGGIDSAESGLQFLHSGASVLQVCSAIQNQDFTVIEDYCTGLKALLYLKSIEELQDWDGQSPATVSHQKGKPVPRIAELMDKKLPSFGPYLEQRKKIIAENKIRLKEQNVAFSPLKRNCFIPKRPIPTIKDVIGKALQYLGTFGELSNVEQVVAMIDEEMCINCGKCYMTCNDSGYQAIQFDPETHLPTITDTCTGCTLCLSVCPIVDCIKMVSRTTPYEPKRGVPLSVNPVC

[3] = QUASAR2 trial: adverse events graded after each treatment cycle with NCI CTCAE version 3.0; format: in vivo, human
Procedure: The QUASAR2 study (http://www.octo-oxford.org.uk/alltrials/infollowup/q2.html; http://www.controlled-trials.com/ISRCTN45133151/) is a phase III randomised controlled trial of capecitabine (Xeloda) (1250 mg/m2 twice daily d1-14 every 3 weeks, total of 8 cycles)+/−bevacizumab (7.5 mg/kg every three weeks) following resection of stage II/III CRC. Patients were entered into the study between July 2005 and December 2011 at 123 UK and 81 non-UK sites. Of 1119 patients with blood collected as of July 2010, 1046 were selected for study based on availability of clinical data and informed consent.
Adverse events were graded following each treatment cycle using the NCI Common Toxicity Criteria for Adverse Events (CTCAE) version 3.0. Common capecitabine-induced toxicities—diarrhoea, nausea and vomiting, mucositis/stomatitis, neutropaenia, thrombocytopaenia, and HFS—were analysed individually and also in combination as “global” toxicity. Adverse events were categorised as low (CTCAE grade 0/1/2) and high (CTCAE grade 3/4/5 at any treatment cycle). Hypertension and proteinuria were clearly related to bevacizumab (˜10-fold higher incidence) and were not included in the analysis.
Genome wide SNP genotypes and per treatment cycle toxicity data was available for 930 patients with stage II and III colorectal cancer treated with capecitabine in the QUASAR2 trial. […] Genotype data was imputed using IMPUTE2 and the UK10K and 1000 genomes merged reference panels. Common Terminology Criteria for Adverse Events (CTCAE) v3.0 was used to grade toxicity events. Patients with ≥grade 3 toxicities in the first two treatment cycles and across all cycles were coded as cases for analysis. Binary coded variables were generated for capecitabine-induced toxicities: diarrhoea, haematological, hand-foot syndrome, mucositis and vomiting. The mucositis toxicity variable captured cases with mucositis and/or stomatitis and haematological toxicity consisted of neutropenia and/or thrombocytopenia cases. A global toxicity phenotype was also analysed with cases having any grade 3 event of one of the aforementioned toxicities. The study was powered at 80% to detect variants with MAF>10% having effect sizes≥2. Association testing was performed using SNPTEST v2.5. The two QUASAR2 trial arms (capecitabine alone and capecitabine plus bevacizumab) were analysed separately and then meta-analysed using META v1.7. […] Gene annotation of the outputs was performed using Variant Effect Predictor (VEP) and ANNOVAR to determine the impact of each variant and distance to the nearest gene. Top independent SNPs were identified from multi-SNP-based conditional and joint association (COJO) analysis using Genome-wide Complex Trait Analysis (GCTA). V1.93.2. Receiver operator curve (ROC) analysis was performed in statistical software R.

[4] = early onset, Cycles 1 & 2 (n = 930), QUASAR 2

O=c1[nH]cc(F)c(=O)[nH]1 [5-FU, 5-fluorouracil]
mortality (Grade 5, CTCAE version 3.0) associated with use ([1]; overall): 0.5-1.0% | patients who suffer substantial toxicities (Grade 3 or above, CTCAE version 3.0) ([1]; patients administered 5-FU-based therapy): 10-30% | fatality rate ([1]; patients with colorectal cancer, serious toxicities from 5-FU): approximately 1% | share of patients who experienced serious (CTCAE≥grade 3) toxicities ([1]; patients with colorectal cancer): Approximately a third | share of drug degraded in the liver by DPYD prior to activation [2]: ~80%

CCCCCOC(=O)Nc1nc(=O)n(C2OC(C)C(O)C2O)cc1F (centres unmarked) [capecitabine, pentyl [1-(3,4-dihydroxy-5-methyltetrahydrofuran-2-yl)-5-fluoro-2-oxo-1H-pyrimidin-4-yl]carbamate]
Diarrhoea, Grade 0-2 (%) [3, 4]: 92.9% | Diarrhoea, Grade 3-4 (%) [3, 4]: 6.9% | Global toxicity, Grade 0-2 (%) [3, 4]: 84.6% | Global toxicity, Grade 3-4 (%) [3, 4]: 15.3% | Haematological toxicity, Grade 0-2 (%) [3, 4]: 98.4% | Haematological toxicity, Grade 3-4 (%) [3, 4]: 1.3% | Hand-foot syndrome, Grade 0-2 (%) [3, 4]: 91.4% | Hand-foot syndrome, Grade 3-4 (%) [3, 4]: 8.3% | Mucositis, Grade 0-2 (%) [3, 4]: 98.7% | Mucositis, Grade 3-4 (%) [3, 4]: 1.1% | Vomiting, Grade 0-2 (%) [3, 4]: 98.7% | Vomiting, Grade 3-4 (%) [3, 4]: 0.9% | share of patients who suffer dose-limiting levels of drug-induced adverse events ([1]; capecitabine patients): approximately one third | mortality from rapid onset of toxicity relative to infusional and bolus 5-FU regimens (0.5% to 2%) ([1]; capecitabine schedules): about half that number

bevacizumab: given with capecitabine in one QUASAR2 arm (7.5 mg/kg every three weeks)
higher incidence of hypertension and proteinuria ([3]; QUASAR2, capecitabine plus bevacizumab arm versus capecitabine alone): ~10 fold
